Test [1] concerns HCT-116. Put plainly: Cytotoxicity against human HCT-116 cells harboring wild type p53 assessed as inhibition of cell proliferation incubated for 72 hrs by MTT assay. As to conditions: for IC50: HCT-116, 72 h. It counts as functional, cell-based.
The test system of test [2] is HL-60. Put plainly: Cytotoxicity against human HL-60 cells harboring wild type FLT3 assessed as inhibition of cell proliferation incubated for 72 hrs by MTT assay. It counts as functional, cell-based. As to conditions: for IC50: HL-60, 72 h. On the technique in general: Tetrazolium dyes change colour on reduction, which living cells bring about.
In test [3] the test system is HCT-116. Put plainly: Cytotoxicity against human HCT-116 cells harboring p53-/- assessed as inhibition of cell proliferation incubated for 72 hrs by MTT assay. It counts as functional, cell-based.
Test [4] relates to U-87 MG. Put plainly: Cytotoxicity against human U87 cells harboring wild type IDH1 assessed as inhibition of cell proliferation incubated for 72 hrs by MTT assay. It counts as functional, cell-based. As to conditions: U-87MG ATCC.
In test [5] the test system is MV4-11. Nature of the test: Cytotoxicity against human MV4-11 cells harboring FLT3-ITD mutant assessed as inhibition of cell proliferation incubated for 72 hrs by MTT assay. The test is classed as functional, cell-based. Particulars: for IC50: MV4-11, 72 h.
Test [6] has as its system U-87 MG. Nature of the test: Cytotoxicity against human U87 cells harboring IDH1-R132H mutant assessed as inhibition of cell proliferation incubated for 72 hrs by MTT assay. It counts as functional, cell-based. As to conditions: U-87MG ATCC.
For test [7], the system named is Streptococcus pyogenes. Nature of the test: Antibacterial activity against Streptococcus pyogenes ATCC 12344 assessed as bacterial growth inhibition incubated for 24 hrs by microdilution assay. It counts as functional. (Broth dilution looks for growth in wells or tubes with falling amounts of substance.)
Test [8] has as its system Staphylococcus aureus. Nature of the test: Antibacterial activity against Staphylococcus aureus USA300 LAC assessed as bacterial growth inhibition incubated for 24 hrs by microdilution assay. The test is classed as functional, organism-based.

This is an account of results in ChEMBL document CHEMBL5143727, “Cytotoxic and Antibacterial Isomalabaricane Terpenoids from the Sponge Rhabdastrella globostellata” (J Nat Prod, 2022).

≈ marks a conversion by molar mass, not a printed value. Calls of active or inactive are those of the source. The rule behind the calls is not given here.

Usually MIC stands for the lowest concentration found to suppress growth. The term IC50 denotes the midpoint of a concentration-inhibition curve.

In the case of `CC1=CC[C@@H](/C(C)=C/C=C/C(C)=C2\C(=O)C[C@H]3[C@@]4(C)CCC(=O)C(C)(C)[C@@H]4CC[C@]23C)OC1=O`, the outcome in test [1], in test [2], in test [3], in test [4], in test [5] and in test [6] was Active.
With `CC(=O)O[C@H]1CC[C@@]2(C)[C@@H](CC[C@]3(C)\C(=C(C)/C=C/C=C(\C)c4ccc(C)c(=O)o4)C(=O)C[C@@H]23)C1(C)C` [STELLETTIN C], in test [7], the MIC was 2 µg/mL (≈ 3.95 µM). The result in test [1], in test [2], in test [3], in test [4], in test [5] and in test [6] was Active.
For `CC(=O)O[C@H]1CC[C@@]2(C)[C@@H](CC[C@]3(C)/C(=C(C)/C=C/C=C(\C)c4ccc(C)c(=O)o4)C(=O)C[C@@H]23)C1(C)C` [STELLETTIN D], in test [7], the MIC came out at 2 µg/mL (≈ 3.95 µM). Also, the IC50 in test [1] was 2350 nM; in test [2] it was 15 nM; in test [5], 390 nM. For the same compound, the result in test [3], in test [4] and in test [6] was Active.
For `CC(=O)O[C@H]1CC[C@@]2(C)[C@@H](CC[C@]3(C)/C(=C(C)/C=C/C=C(\C)[C@H]4CC=C(C)C(=O)O4)C(=O)C[C@@H]23)C1(C)C`, the IC50 in test [1] amounted to 2490 nM; in test [2], 42 nM; in test [5] it was 280 nM. Also, the outcome in test [3] was Active.
Regarding `CC(=O)/C=C\C(=O)/C(C)=C/C=C/C(C)=C1\C(=O)C[C@H]2[C@@]3(C)CCC(=O)C(C)(C)[C@@H]3CC[C@]12C` [ISOGEODITIN A], in test [7], the MIC turned out to be 0.4 µg/mL (≈ 0.888 µM). Besides, in test [8], the result was Active.
In the same order, the values of `CC(=O)/C=C\C(=O)/C(C)=C/C=C/C(C)=C1/C(=O)C[C@H]2[C@@]3(C)CC[C@H](OC(C)=O)C(C)(C)[C@@H]3CC[C@]12C` are 1 µg/mL (≈ 2.02 µM) and “Active”.
For `CC(=O)/C=C\C(=O)/C(C)=C/C=C/C(C)=C1\C(=O)C[C@H]2[C@@]3(C)CC[C@H](OC(C)=O)C(C)(C)[C@@H]3CC[C@]12C` [ISOGEODITIN B], the MIC in test [7] was 1.9 µg/mL (≈ 3.84 µM).
Turning to `C\C(=C/C=C/C(C)=C1/C(=O)C[C@H]2[C@@]3(C)CCC(=O)C(C)(C)[C@@H]3CC[C@]12C)c1ccc(C)c(=O)o1` [STELLETIN A], in test [7], the MIC was determined as 1.8 µg/mL (≈ 3.89 µM). The result in test [1], in test [2], in test [3], in test [4], in test [5] and in test [6] was Active.
As to `CC(=O)/C=C\C(=O)/C(C)=C/C=C/C(C)=C1/C(=O)C[C@H]2[C@@]3(C)CCC(=O)C(C)(C)[C@@H]3CC[C@]12C`, the MIC in test [7] turned out to be 0.1 µg/mL (≈ 0.222 µM). In addition, in test [8], the result was Active.
Regarding `CC(=O)/C=C/C(=O)/C(C)=C/C=C/C(C)=C1\C(=O)C[C@H]2[C@@]3(C)CCC(=O)C(C)(C)[C@@H]3CC[C@]12C` [GEODITIN A], the MIC in test [7] is 0.9 µg/mL (≈ 2 µM). The result in test [8] was Active.
In the same order, the values of `CC(=O)/C=C/C(=O)/C(C)=C/C=C/C(C)=C1/C(=O)C[C@H]2[C@@]3(C)CCC(=O)C(C)(C)[C@@H]3CC[C@]12C` are 1.8 µg/mL (≈ 3.99 µM) and “Active”.
